Paper PMC6917776, “Discovery of a chemical probe for PRDM9” (Nature Communications, 2019)
Like-named read-outs stand apart in the source and are kept apart here.

Assay: CelltiterGlo viability cell assay
Assay type: cell-based
Conditions: human; for viability at 3 day, 9.5 µM / viability at 3 day, 30 µM / viability at 6 day, 0.01 µM / viability at 6 day, 0.03 µM / viability at 6 day, 0.1 µM: SKMM2 cells (multiple myeloma line); for viability at 3 day, 0.01 µM / viability at 3 day, 0.03 µM: SKMM2 cells
Summary of the method: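 Mycoplasma-negative lines were plated at line-specific densities and treated with a compound titration (0.01–30 μM); CelltiterGlo signal at day 3 or 6 was referenced to DMSO control.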

[1] = RPMI-8226 multiple myeloma cells, 8226, 3 day, read-out: viability Replicate 1
[2] = RPMI-8226 multiple myeloma cells, 8226, 3 day, read-out: viability Replicate 2
[3] = RPMI-8226 multiple myeloma cells, 8226, 3 day, read-out: viability Replicate 3
[4] = RPMI-8226 multiple myeloma cells, 8226, 3 day, read-out: viability Average
[5] = RPMI-8226 multiple myeloma cells, 8226, 6 day, read-out: viability Average
[6] = RPMI-8226 multiple myeloma cells, 8226, 6 day, read-out: viability Replicate 1
[7] = RPMI-8226 multiple myeloma cells, 8226, 6 day, read-out: viability Replicate 2
[8] = RPMI-8226 multiple myeloma cells, 8226, 6 day, read-out: viability Replicate 3
[9] = SKMM2, 3 day, read-out: viability Average
[10] = SKMM2, 3 day, read-out: viability Replicate 1
[11] = SKMM2, 3 day, read-out: viability Replicate 2
[12] = SKMM2, 3 day, read-out: viability Replicate 3
[13] = SKMM2, 6 day, read-out: viability Average
[14] = SKMM2, 6 day, read-out: viability Replicate 1
[15] = SKMM2, 6 day, read-out: viability Replicate 2
[16] = SKMM2, 6 day, read-out: viability Replicate 3
[17] = SKMM2 multiple myeloma cells, SKMM2, 3 day, read-out: viability Average
[18] = SKMM2 multiple myeloma cells, SKMM2, 3 day, read-out: viability Replicate 1
[19] = SKMM2 multiple myeloma cells, SKMM2, 3 day, read-out: viability Replicate 2
[20] = SKMM2 multiple myeloma cells, SKMM2, 3 day, read-out: viability Replicate 3
[21] = SKMM2 multiple myeloma cells, SKMM2, 6 day, read-out: viability Average
[22] = SKMM2 multiple myeloma cells, SKMM2, 6 day, read-out: viability Replicate 1
[23] = SKMM2 multiple myeloma cells, SKMM2, 6 day, read-out: viability Replicate 2
[24] = SKMM2 multiple myeloma cells, SKMM2, 6 day, read-out: viability Replicate 3

COc1cc(OC)cc(-c2noc(N3CCN(C)C4(CCN(c5ccnc(C)c5)CC4)C3)n2)c1 [MRK-740]
viability at 3 day, 0.3 µM [1]: 101% | viability at 3 day, 0.3 µM [2]: 101% | viability at 3 day, 0.3 µM [3]: 104% | viability at 3 day, 1 µM [4]: 104% | viability at 3 day, 1 µM [1]: 104% | viability at 3 day, 1 µM [2]: 102% | viability at 3 day, 1 µM [3]: 105% | viability at 3 day, 3 µM [4]: 106% | viability at 3 day, 3 µM [1]: 106% | viability at 3 day, 3 µM [2]: 105% | viability at 3 day, 3 µM [3]: 107% | viability at 6 day, 0.3 µM [5]: 98.9% | viability at 6 day, 0.3 µM [6]: 97.6% | viability at 6 day, 0.3 µM [7]: 98.6% | viability at 6 day, 0.3 µM [8]: 101% | viability at 6 day, 1 µM [5]: 97.3% | viability at 6 day, 1 µM [6]: 95% | viability at 6 day, 1 µM [7]: 99.7% | viability at 6 day, 1 µM [8]: 97.2% | viability at 6 day, 3 µM [5]: 92.6% | viability at 6 day, 3 µM [6]: 89.2% | viability at 6 day, 3 µM [7]: 96.8% | viability at 6 day, 3 µM [8]: 91.7% | viability at 6 day, 9.5 µM [5]: 82.7% | viability at 6 day, 9.5 µM [6]: 77% | viability at 6 day, 9.5 µM [7]: 85.6% | viability at 6 day, 9.5 µM [8]: 85.5% | viability at 6 day, 30 µM [5]: 70.7% | viability at 6 day, 30 µM [6]: 82% | viability at 6 day, 30 µM [7]: 56.4% | viability at 6 day, 30 µM [8]: 73.5% | viability at 3 day, 9.5 µM [9]: 93.2% | viability at 3 day, 9.5 µM [10]: 95.7% | viability at 3 day, 9.5 µM [11]: 89.2% | viability at 3 day, 9.5 µM [12]: 94.7% | viability at 3 day, 30 µM [9]: 67% | viability at 3 day, 30 µM [10]: 70.4% | viability at 3 day, 30 µM [11]: 59% | viability at 3 day, 30 µM [12]: 71.7% | viability at 6 day, 0.01 µM [13]: 99.7% | viability at 6 day, 0.01 µM [14]: 96.8% | viability at 6 day, 0.01 µM [15]: 103% | viability at 6 day, 0.01 µM [16]: 99.2% | viability at 6 day, 0.03 µM [13]: 98.1% | viability at 6 day, 0.03 µM [14]: 90.3% | viability at 6 day, 0.03 µM [15]: 105% | viability at 6 day, 0.03 µM [16]: 98.8% | viability at 6 day, 0.1 µM [13]: 96.7% | viability at 6 day, 0.1 µM [14]: 86.5% | viability at 6 day, 0.1 µM [15]: 107% | viability at 6 day, 0.1 µM [16]: 96.8% | viability at 3 day, 0.01 µM [9]: 101% | viability at 3 day, 0.01 µM [10]: 101% | viability at 3 day, 0.01 µM [11]: 99.6% | viability at 3 day, 0.01 µM [12]: 102% | viability at 3 day, 0.03 µM [9]: 101% | viability at 3 day, 0.03 µM [10]: 99.8% | viability at 3 day, 0.03 µM [11]: 99.2% | viability at 3 day, 0.03 µM [12]: 103% | viability at 3 day, 0.1 µM [17]: 103% | viability at 3 day, 0.1 µM [18]: 102% | viability at 3 day, 0.1 µM [19]: 100% | viability at 3 day, 0.1 µM [20]: 105% | viability at 3 day, 0.3 µM [17]: 101% | viability at 3 day, 0.3 µM [18]: 101% | viability at 3 day, 0.3 µM [19]: 98.7% | viability at 3 day, 0.3 µM [20]: 103% | viability at 3 day, 1 µM [17]: 101% | viability at 3 day, 1 µM [18]: 99.9% | viability at 3 day, 1 µM [19]: 99.6% | viability at 3 day, 1 µM [20]: 104% | viability at 3 day, 3 µM [17]: 99.8% | viability at 3 day, 3 µM [18]: 97.6% | viability at 3 day, 3 µM [19]: 98.3% | viability at 3 day, 3 µM [20]: 104% | viability at 6 day, 0.3 µM [21]: 98.1% | viability at 6 day, 0.3 µM [22]: 88.2% | viability at 6 day, 0.3 µM [23]: 106% | viability at 6 day, 0.3 µM [24]: 100% | viability at 6 day, 1 µM [21]: 96.5% | viability at 6 day, 1 µM [22]: 88% | viability at 6 day, 1 µM [23]: 105% | viability at 6 day, 1 µM [24]: 96.3% | viability at 6 day, 3 µM [21]: 96.8% | viability at 6 day, 3 µM [22]: 85.2% | viability at 6 day, 3 µM [23]: 105% | viability at 6 day, 3 µM [24]: 100% | viability at 6 day, 9.5 µM [21]: 94.5% | viability at 6 day, 9.5 µM [22]: 83.8% | viability at 6 day, 9.5 µM [23]: 102% | viability at 6 day, 9.5 µM [24]: 97.7% | viability at 6 day, 30 µM [21]: 71.5% | viability at 6 day, 30 µM [22]: 71.4% | viability at 6 day, 30 µM [23]: 66% | viability at 6 day, 30 µM [24]: 77.2%
